Source: patent publication US20260285855A1, “HETEROARYL DERIVATIVES AS DDRS INHIBITORS” (CHIESI FARMACEUTICI S.P.A., priority 2023, published 2026)

Legend:
DDR1 = target: T1, DDR1 (Homo sapiens, UniProt Q08345); test: LanthaScreen Europium Kinase Binding assay, DDR1; settings: 5 nM DDR1, 20 nM Kinase Tracer 178, 1 h at rt; Ki from IC50 by Cheng-Prusoff; read-out: Ki DDR1
T1 construct: purchased Carna Biosciences
Description: (§1) DDR1 and DDR2 binding assays were performed using Life Technologies LanthaScreen™ Europium Kinase Binding assay. […] IC50 values were determined in GraphPad Prism 7.0 software, using 4 parameter model: log (inhibitor) vs. response. IC50 values were converted in Ki using the Cheng-Prusoff equation (Ki-IC50/(1+ [Tracer]/Kd).

DDR2 = target: T2, DDR2 (Homo sapiens, UniProt Q16832); test: LanthaScreen Europium Kinase Binding assay, DDR2; settings: 5 nM DDR2, 10 nM Kinase Tracer 178, 1 h at rt; Ki from IC50 by Cheng-Prusoff; read-out: Ki DDR2
T2 construct: purchased Life Technologies
T2 sequence (Q16832 22-855): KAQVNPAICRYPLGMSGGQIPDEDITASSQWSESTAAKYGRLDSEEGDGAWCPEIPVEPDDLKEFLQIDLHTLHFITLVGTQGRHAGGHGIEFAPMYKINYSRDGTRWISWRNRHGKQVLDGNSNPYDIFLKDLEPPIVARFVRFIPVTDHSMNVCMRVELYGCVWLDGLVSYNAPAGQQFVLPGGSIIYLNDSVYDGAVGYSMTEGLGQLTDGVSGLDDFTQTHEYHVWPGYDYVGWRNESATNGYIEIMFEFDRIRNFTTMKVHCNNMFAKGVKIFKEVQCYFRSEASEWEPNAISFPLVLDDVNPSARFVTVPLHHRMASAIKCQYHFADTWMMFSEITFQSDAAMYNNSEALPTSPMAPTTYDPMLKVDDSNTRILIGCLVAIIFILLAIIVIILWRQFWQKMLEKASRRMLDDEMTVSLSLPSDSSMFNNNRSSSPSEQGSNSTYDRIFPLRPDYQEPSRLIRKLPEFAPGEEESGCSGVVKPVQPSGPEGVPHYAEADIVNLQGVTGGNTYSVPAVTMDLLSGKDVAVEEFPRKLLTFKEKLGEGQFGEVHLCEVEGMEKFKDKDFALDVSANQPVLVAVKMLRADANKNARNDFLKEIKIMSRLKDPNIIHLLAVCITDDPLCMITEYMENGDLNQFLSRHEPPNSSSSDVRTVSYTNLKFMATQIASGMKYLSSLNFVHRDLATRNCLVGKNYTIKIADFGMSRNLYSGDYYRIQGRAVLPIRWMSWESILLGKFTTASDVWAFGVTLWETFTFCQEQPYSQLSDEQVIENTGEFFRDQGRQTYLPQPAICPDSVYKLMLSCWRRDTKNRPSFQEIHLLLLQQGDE
Description: as §1

T1 sequence (Q08345 19-913): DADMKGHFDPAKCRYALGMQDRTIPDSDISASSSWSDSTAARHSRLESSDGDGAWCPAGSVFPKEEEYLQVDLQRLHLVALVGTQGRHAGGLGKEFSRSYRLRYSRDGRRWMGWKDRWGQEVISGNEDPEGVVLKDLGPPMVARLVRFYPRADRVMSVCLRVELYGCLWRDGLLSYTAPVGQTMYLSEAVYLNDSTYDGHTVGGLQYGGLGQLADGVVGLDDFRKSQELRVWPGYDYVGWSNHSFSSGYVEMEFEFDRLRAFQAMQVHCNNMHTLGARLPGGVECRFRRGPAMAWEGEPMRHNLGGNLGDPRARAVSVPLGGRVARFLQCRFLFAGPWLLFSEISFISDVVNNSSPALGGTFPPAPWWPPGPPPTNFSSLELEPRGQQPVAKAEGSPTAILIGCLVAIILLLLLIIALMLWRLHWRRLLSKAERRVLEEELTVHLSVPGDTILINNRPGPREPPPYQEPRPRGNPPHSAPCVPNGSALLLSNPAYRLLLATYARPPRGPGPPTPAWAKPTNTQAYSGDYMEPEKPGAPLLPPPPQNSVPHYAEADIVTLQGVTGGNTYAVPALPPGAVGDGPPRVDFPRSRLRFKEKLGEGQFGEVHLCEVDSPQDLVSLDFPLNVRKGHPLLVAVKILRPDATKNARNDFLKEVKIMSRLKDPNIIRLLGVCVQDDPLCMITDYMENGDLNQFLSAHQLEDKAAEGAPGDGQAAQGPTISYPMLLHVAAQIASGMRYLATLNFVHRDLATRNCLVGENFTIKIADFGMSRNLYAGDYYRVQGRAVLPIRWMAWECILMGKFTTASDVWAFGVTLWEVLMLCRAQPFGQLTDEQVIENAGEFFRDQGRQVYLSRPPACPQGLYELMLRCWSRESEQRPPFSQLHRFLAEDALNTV

SMILES	Ki (DDR1) [nM]	Ki (DDR2) [nM]
Cn1ccn2ncc(C(=O)N3CC4(CC(NC(=O)Nc5cc(C6CC6)ccn5)C4)C3)c12 [Example 155, 1-(4-cyclopropylpyridin-2-yl)-3-(2-(1-methyl-1H-imidazo[1,2-b]pyrazole-7-carbonyl)-2-azaspiro[3.3]heptan-6-yl)urea]	< 5	5 to 25
CN(C(=O)Nc1cc(C2CC2)ccn1)C1CC2(C1)CN(C(=O)c1cnn3ccn(C)c13)C2 [Example 156, 3-(4-cyclopropylpyridin-2-yl)-1-methyl-1-(2-(1-methyl-1H-imidazo[1,2-b]pyrazole-7-carbonyl)-2-azaspiro[3.3]heptan-6-yl)urea]	< 5	5 to 25
CN(C(=O)Nc1cncc(C2CC2)c1)C1CC2(C1)CN(C(=O)c1cnn3ccn(C)c13)C2 [Example 157, 3-(5-cyclopropylpyridin-3-yl)-1-methyl-1-(2-(1-methyl-1H-imidazo[1,2-b]pyrazole-7-carbonyl)-2-azaspiro[3.3]heptan-6-yl)urea]	< 5	5 to 25
Cn1ccc2ncnc(C(=O)N3CC4(CC(NC(=O)Nc5cccc(C(F)(F)F)c5)C4)C3)c21 [Example 160, 1-(2-(5-methyl-5H-pyrrolo[3,2-d]pyrimidine-4-carbonyl)-2-azaspiro[3.3]heptan-6-yl)-3-(3-(trifluoromethyl)phenyl)urea]	5 to 25	5 to 25
Cn1ccn2ncc(C(=O)N3CC4(CC(NC(=O)Nc5cccc(S(=O)(=O)C(F)(F)F)c5)C4)C3)c12 [Example 161, 1-(2-(1-methyl-1H-imidazo[1,2-b]pyrazole-7-carbonyl)-2-azaspiro[3.3]heptan-6-yl)-3-(3-((trifluoromethyl)sulfonyl)phenyl)urea]	< 5	5 to 25

The next lines start with the values.

Ki (DDR1) [nM]	Ki (DDR2) [nM]	SMILES
< 5	5 to 25	[2H]C([2H])([2H])N(C(=O)Nc1cccc(C(F)(F)F)c1)C1CC2(C1)CN(C(=O)c1cnn3ccn(C)c13)C2 [Example 158, 1-(methyl-d3)-1-(2-(1-methyl-1H-imidazo[1,2-b]pyrazole-7-carbonyl)-2-azaspiro[3.3]heptan-6-yl)-3-(3-(trifluoromethyl)phenyl)urea]
< 5	5 to 25	O=C(Nc1cncc(C(F)(F)F)c1)NC1CC2(C1)CN(C(=O)c1ccnc3[nH]ncc13)C2 [Example 159, 1-(2-(1H-pyrazolo[3,4-b]pyridine-4-carbonyl)-2-azaspiro[3.3]heptan-6-yl)-3-(5-(trifluoromethyl)pyridin-3-yl)urea]
< 5	< 5	O=C(Nc1cccc(SC(F)(F)F)c1)NC1CC2(C1)CN(C(=O)c1ccnc3[nH]ncc13)C2 [Example 162, 1-(2-(1H-pyrazolo[3,4-b]pyridine-4-carbonyl)-2-azaspiro[3.3]heptan-6-yl)-3-(3-((trifluoromethyl)thio)phenyl)urea]
5 to 25	5 to 25	O=C(Nc1ccc(C(F)(F)F)cn1)NC1CC2(C1)CN(c1cnc3[nH]ncc3c1)C2 [Example 163, 1-(2-(1H-pyrazolo[3,4-b]pyridin-5-yl)-2-azaspiro[3.3]heptan-6-yl)-3-(5-(trifluoromethyl)pyridin-2-yl)urea]
< 5	25 to 100	CN(C(=O)Nc1cc(C(F)F)ccn1)C1CC2(C1)CN(C(=O)c1cnn3ccn(C)c13)C2 [Example 164, 3-(4-(difluoromethyl)pyridin-2-yl)-1-methyl-1-(2-(1-methyl-1H-imidazo[1,2-b]pyrazole-7-carbonyl)-2-azaspiro[3.3]heptan-6-yl)urea]
< 5	5 to 25	Cc1ncc(C(F)(F)F)cc1NC(=O)NC1CC2(C1)CN(C(=O)c1cnn3ccsc13)C2 [Example 165, 1-(2-methyl-5-(trifluoromethyl)pyridin-3-yl)-3-(2-(pyrazolo[5,1-b]thiazole-7-carbonyl)-2-azaspiro[3.3]heptan-6-yl)urea]
